Test results published in patent publication US11701360B2, “Composition for inducing differentiation and protection of neural stem cells and method for inducing neuro-regeneration using the same composition” (GENUV Inc., priority 2017, dated 2023).
“Also recorded” adds a separate entry of the source. Where two headings read alike, the source gives them in different places.

Key:
[1] = tested on: mouse adult neural stem cells; conditions: for cell protection and differentiation of NSC under amyloid-beta cytotoxicity: 10 μM amyloid-beta, second day of culture; for concentration at which differentiation-inducing effect starts: no amyloid-beta, day 2 of culture
Experimental: NSC were isolated from the subventricular zone of week 8 mouse brain, treated with 20 ng/ml human basic fibroblast growth factor (bFGF) and 20 ng/ml human epidermal growth factor (EGF) in an IPM medium, and cultured as a suspension in 24-well plates for 7 days.
Two days before the isolation of single cells, 6-well plates were prepared by treating the wells with 10 μg/ml poly-L-ornithine solution and incubating overnight at room temperature for coating. The next day, poly-L-ornithine solution was removed and the plates were washed 3 times with sterilized triple distilled water. […] The culture solution used is N2 culture medium (supplemented with 20 ng/ml bFGF and 20 ng/ml EGF). Right before seeding, the coating solution was suctioned out, and the single cells were uniformly seeded into the culture plate before the plate dried up. Cells were allowed to attach to the plates for about one minute, and after checking that cells were sufficiently attached, an additional 1.5 ml of culture medium (N2 culture medium with 20 ng/ml bFGF and 20 ng/ml EGF) was added to the cells and cultured in a 37° C. incubator for 24 hours.
Wells not treated with amyloid-beta were left to use as negative controls.
Gibco's (Waltham, Mass.) human Aβ (1-42) was purchased to use for the amyloid-beta (Aβ), and the following process was followed to create oligomers. […] Then, it was dried for 10 minutes in a speed Vac, after which DMSO (Sigma, cat #.D2650) was added to bring the concentration to 5 mM and then lightly vortexed at room temperature for 10 minutes. […] The solution was incubated at 4° C. for 24 hours and then added into the cultured cells.
The NCSs were cultured with the daily addition of EGF, bFGF, amyloid-beta, and test materials for 4 days.

[2] = tested on: mouse embryonic neural stem cells; assay: Morphology analysis (phase-contrast) of NSC differentiation in mouse embryonic neural stem cells; type: cell-based; conditions: 1.0 μM and 10 μM; day 2 of culture
Experimental: Neural stem cells were isolated from the brain of a day 14.5 mouse embryo, treated with 10 ng/ml human basic fibroblast growth factor (bFGF) (Peprotech, Princeton, NG, cat #0.100-18B) and 20 ng/ml human epidermal growth factor (EGF) (Peprotech, cat #. AF-100-15) in a N2 culture medium, and cultured in suspension in a 25 cm2 flask (Nunc, Pittsburgh, Pa.) for 4 days. Formation of neurospheres was observed after 2 days.
In order to isolate single cells, 6-well plates were prepared the day before by treating the wells with 15 μg/ml poly-L-ornithine (Sigma, St. Louis, Mo., cat #.P2533) solution and incubating overnight at 37° C. for coating. The day of the single cell isolation, poly-L-ornithine solution was removed, the plates were washed with PBS three times, and 10 μg/ml fibronectin (Gibco, Waltham, Mass., cat #. 33016015) solution was added and incubated at 37° C. for 2 hours for coating.
Various concentrations of the compound of [Formula 1]
FIG. 10b is the analysis of Tuj1 mRNA expression in the cells of each group.

[3] = target: MEK1 (Homo sapiens (Human), UniProt Q02750); conditions: cited from earlier work
Sequence of MEK1 (Q02750 whole entry, species assumed): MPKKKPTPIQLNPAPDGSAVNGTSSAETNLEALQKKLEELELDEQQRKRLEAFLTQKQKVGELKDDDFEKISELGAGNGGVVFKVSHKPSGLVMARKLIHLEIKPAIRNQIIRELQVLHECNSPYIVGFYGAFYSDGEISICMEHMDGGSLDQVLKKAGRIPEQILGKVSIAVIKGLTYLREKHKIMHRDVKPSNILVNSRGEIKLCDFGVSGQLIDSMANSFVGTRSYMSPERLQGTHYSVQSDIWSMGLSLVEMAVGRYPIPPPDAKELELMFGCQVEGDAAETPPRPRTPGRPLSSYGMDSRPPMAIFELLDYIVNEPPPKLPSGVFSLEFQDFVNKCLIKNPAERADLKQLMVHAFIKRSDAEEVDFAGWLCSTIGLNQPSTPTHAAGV

[4] = cited from earlier work
[5] = tested on: mouse embryonic neural stem cells; assay: Immunocytochemistry analysis (Tuj1/DAPI staining); type: cell-based; conditions: 4 days
Experimental: Tuj1 (Neuron specific class III beta-tubulin) is a neuron specific marker protein, which was conjugated to rhodamine to show fluorescent red, while DAPI binds to the cell DNA and stains the cell nuclei fluorescent blue. […] The medium was removed and the cells were washed with PBS. After fixing with 10% formaldehyde (Sigma cat #. HT501128) at room temperature for 10 minutes, they were washed again with PBS. They were permeabilized with 0.2% Triton X-100 (Sigma, cat #. 93443) at room temperature for 15 minutes, washed with PBS, and incubated with 10% BSA (Sigma, cat #. A2153)+1% normal goat serum (Vector lab, Burlingame, Calif., cat #. S1000) at room temperature for 1 hour. […] The solution was removed, washed with PBS, and incubated at room temperature for 1 hour with the secondary antibody (rhodamine-conjugated antibody) diluted in 1% BSA+1% normal goat serum at a ratio of 1:200. Then, the cells were washed with PBS, incubated with 5 μg/ml DAPI (Sigma, cat #. D9542) for 5 minutes, washed with PBS again, and mounted on a slide glass for analysis with a fluorescent microscope.

Compound: Cc1cc(C(=O)NOCCO)c(Nc2ccc(I)cc2F)n(C)c1=O [AZD8330]
- cell protection and differentiation of NSC under amyloid-beta cytotoxicity ([1]; compound 1 μM): provided cell protection and induced the differentiation of NSC

Compound: O=C(NOCC1CC1)c1ccc(F)c(F)c1Nc1ccc(I)cc1Cl [PD184352]
- cell death [2]: all the cells died

Compound: BI847325
- cell proliferation ([1]; 1.0 nM and 10 nM, day 2): somewhat inhibited
- differentiation-inducing effect (morphology) ([1]; 1.0 nM and 10 nM, day 2): not observed
- differentiation-inducing effect (morphology) ([1]; 0.1 μM, day 2): only a weak differentiation-inducing effect

Compound: COc1cc(F)c(F)c(Nc2ccc(I)cc2F)c1NS(=O)(=O)C1(C[C@H](O)CO)CC1 [refametinib]
- cell protection and differentiation of NSC under amyloid-beta cytotoxicity ([1]; compound 1 μM): provided cell protection and induced the differentiation of NSC

Compound: CC12CC3CC(C)(C1)CC(N)(C3)C2 [memantine]
- cell death of neural stem cells ([1]; 5 μM and 10 μM, 4 days): death of neural stem cells
- differentiation of NSC into neurons (morphology) ([1]; 5 μM and 10 μM, 4 days): not observed

Compound: O=C(NOC[C@H](O)CO)c1ccc(F)c(F)c1Nc1ccc(I)cc1F [PD0325901]
- differentiation-inducing effect (morphology) ([1]; 0.1 μM to 10 μM, day 2): excellent inducing effect
- concentration at which differentiation-inducing effect starts [1]: 0.1 µM

Compound: N#CC(=C(/N)Sc1ccccc1N)/C(C#N)=C(\N)Sc1ccccc1N [U0126]
- cell proliferation ([1]; 0.1 μM and 1.0 μM, day 2): inhibition of cell proliferation
- differentiation-inducing effect (morphology) ([1]; 2.5 μM, day 2): did not show any clear differentiation-inducing effect
- cell cytotoxicity ([1]; 10 μM, day 2): cell cytotoxicity
- NSC differentiation-inducing effect (morphology) ([1]; all concentrations tested, day 2): failed to show any NSC differentiation-inducing effect

Compound: O=C(c1ccc(F)c(F)c1Nc1ccc(I)cc1F)N1CC(O)([C@@H]2CCCCN2)C1 [cobimetinib]
- selectivity toward MEK1 compared with MEK2 [3]: ≥ 100 ×
- differentiation of adult NSC (morphology) ([1]; 10 μM, regardless of whether amyloid-beta was added, second day): did not induce the differentiation of adult NSC; also recorded: does not induce the differentiation of mouse adult neural stem cells

Compound: O=C(NOCC(O)CO)c1cc(Br)c(F)c(F)c1Nc1ccc(I)cc1F (stereo not drawn) [PD318088]
- cell protection and differentiation of NSC under amyloid-beta cytotoxicity ([1]; compound 1 μM): provided cell protection and induced the differentiation of NSC

Compound: O=C(NC[C@H](O)CO)c1ccncc1Nc1ccc(I)cc1F [AS703026, pimasertib]
- expression of phosphorylated ERK in the mouse brain [4]: decrease the expression of phosphorylated ERK
- crossing of the blood brain barrier ([4]; mouse): effectively cross the BBB
- cell protection and differentiation of NSC under amyloid-beta cytotoxicity ([1]; compound 10 μM): provided cell protection and induced the differentiation of NSC
- cell toxicity ([1]; trametinib 10 nM and 100 nM, AS703026 10 μM, 4 days): did not elicit cell toxicity
- neuron differentiation (Tuj1 staining) ([5]; 0.1 μM): no differentiation was observed
- neuron differentiation (Tuj1 staining) ([5]; 1.0 μM): neuron differentiation occurs at this concentration, albeit only to a marginal extent

Compound: CNS(=O)(=O)Nc1nccc(Cc2c(C)c3ccc(Oc4ncccn4)cc3oc2=O)c1F [RO5126766]
- concentration at which differentiation-inducing effect starts [1]: 1.0 µM
